According to US11141462B2, “Method for the treatment or prevention of osteoarthritis” (Chondropeptix B.V., priority 2016, dated 2021):

Assays:
Format in all cases: cell-based, human
[1] = test system: OA articular chondrocytes; assay: OA chondrocyte phenotype gene expression screening of BMP-7 peptides (RT-qPCR); set-up: key to IL-6 / ADAMTS5 / COL10A / BAPX1/NKX3.2 / ALP / RUNX2: —: [-] denotes the absence of a significant effect or a significantly decreased expression of chondrogenic marker genes BAPX1/NKX3.2, or a significantly increased expression of OA phenotypic markers IL-6, ADAMTS5, COL10A, ALP and RUNX2 in OA articular chondrocytes, in comparison to untreated OA articular chondrocytes; conditions: for ADAMTS5 / ALP / BAPX1/NKX3.2 / COL10A / IL-6 / RUNX2: Table 1, gene expression in OA articular chondrocytes vs untreated; for suppression of the OA chondrocyte phenotype: independent of the tested concentration (1000, 100, 10 and 1 nM were tested); for activity in the assays as employed herein (table 2): peptides with additional amino acid N-terminal of position 100
Experimental: (§1) FIG. 2: The action of 20-mer peptides (10 nM) of SEQ ID NO: 2-17 (peptides with 1 or 2 amino acids intervals (18-19 amino acid overlap)) and a random peptide with a sequence according to SEQ ID NO: 49 on the expression of ADAMTS5 was determined on a validated pool of passage 2 OA human articular chondrocytes (n=18) and compared to full-length recombinant BMP-7 (1 nM). Samples were harvested after 24 hours and analyzed for indicated genes by RT-qPCR (normalized for 28S rRNA expression and relative to control conditions (no peptide exposure)). In the graphs, numbers on the x-axis represent individual peptides according to their SEQ ID NO's, error bars represent mean±SEM, statistical differences were calculated (one-way ANOVA with bonferroni correction) to control condition. *=p<0.05 lower than control condition for ADAMTS5. Random peptide is a peptide according to SEQ ID NO: 49.
as §1, with “3:” for “2:”, “ALP” for “ADAMTS5”, “ALP.” for “ADAMTS5.”
as §1, with “4:” for “2:”, “BAPX1/NKX3.2” for “ADAMTS5”, “BAPX1/NKX3.2.” for “ADAMTS5.”
as §1, with “5:” for “2:”, “COL10A1” for “ADAMTS5”, “COL10A1.” for “ADAMTS5.”
FIG. 6: The action of 20-mer peptides (10 nM) of SEQ ID NO: 2-17 (peptides with 1 or 2 amino acids intervals (18-19 amino acid overlap)) and a random peptide with a sequence according to SEQ ID NO: 49 on the expression of IL-6 was determined on a validated pool of passage 2 OA human articular chondrocytes (n=18) and compared to full-length recombinant BMP-7 (1 nM). […]

Cartilage explants = assay: Safranin-O staining of glycosaminoglycans in cartilage explants; conditions: 10 nM, 14 days; explants from 2 patients; compared to control
Experimental: Cartilage explants obtained from 2 patients were cultured for 14 days in the presence of BMP-7 (1 nM) or BMP-7 mimicking peptide […] (SEQ ID NO: 13) at 10 nM. Glycosaminoglycans (GAGs), an important component of the extracellular matrix (ECM), were stained with Safranin-O (in red) and other tissues are counterstained with Fast green (in green/blue).

[2] = test system: Cartilage explants from OA patient's knee cartilage; assay: PGE2 ELISA, cartilage explants; conditions: 10 nM, 14 days
Experimental: Cartilage explants of 3 mm^2 were taken from OA patient's knee cartilage (n=6) and treated with BMP-7 (1 nM), with peptide […] (SEQ ID NO: 13) at 10 nM or a scrambled irrelevant control peptide (10 nM) for 14 days. Prostaglandin E2 (PGE2) levels, a pro-hypertrophic factor, were determined via an ELISA.

[3] = test system: Synovial tissue samples from OA patients; assay: PGE2 ELISA, synovial tissue samples; conditions: 10 nM, 24 h
Experimental: Synovial tissue samples from OA patients (n=6) were treated with BMP-7 (1 nM), with peptide […] (SEQ ID NO: 13) at 10 nM or a scrambled irrelevant control peptide (10 nM) for 24 h. PGE2 levels were determined via an ELISA.

[4] = test system: Hoffa's fat pad tissue samples from OA patients; assay: PGE2 ELISA, Hoffa's fat pad tissue samples; conditions: 10 nM, 24 h
Experimental: Hoffa's fat pad tissue samples from OA patients (n=6) were treated with BMP-7 (1 nM) with peptide […] (SEQ ID NO: 13) at 10 nM or a scrambled irrelevant control peptide (10 nM) for 24 h. PGE2 levels were determined via an ELISA.

[5] = test system: Meniscus tissue samples from OA patients; assay: PGE2 ELISA, meniscus tissue samples; conditions: 10 nM, 24 h
Experimental: Meniscus tissue samples from OA patients (n=6) were treated with BMP-7 (1 nM) with peptide peptide […] (SEQ ID NO: 13) at 10 nM or a scrambled irrelevant control peptide (10 nM) for 24 h. PGE2 levels were determined via an ELISA.

[6] = test system: Isolated chondrocytes from OA patients; assay: Treatment of isolated chondrocytes from OA patients, gene expression by qRT-PCR; conditions: 1 nM, 24 h; qRT-PCR normalized for 28S rRNA; n=6
Experimental: Isolated chondrocytes from OA patients (n=6) were treated with BMP-7 (1 nM) or the 12-mer peptide according to SEQ ID NO: 43 (1 nM) for 24 h. Pro-chondrogenic (FIG. 8A) and hypertrophic (FIGS. 8B, 8C and 8D) gene expression was determined via qRT-PCR and normalized for 28S rRNA levels.

[7] = test system: cartilage explants from OA patient's knee articular cartilage; assay: Treatment of cartilage explants, hypertrophic gene expression by qRT-PCR; conditions: 10 nM, 24 h
Experimental: 4 mm 2 cartilage explants were taken from non-lesion areas of OA patient's knee articular cartilage (n=5) and randomly assigned to different experimental treatment conditions (4 explants per treatment group). After a 24 h equilibration period the explants were treated with BMP-7 (1 nM) or the 12-mer peptide according to SEQ ID NO: 43 (10 nM) for 24 h. Hypertrophic gene expression was determined via qRT-PCR and normalized for 28S rRNA levels. After treatment with BMP-7 or the 12 mer we observed a downregulation of pro-hypertrophic genes, such as Col10a1 (FIG. 9A) and MMP13 (FIG. 9B).

In the case of “22 (DLGWQDWIIAPEGYAAYYCE; listed as Homo sapiens) [compound 22]”, the ADAMTS5 [1] was “—”, the ALP [1] was “—” and the BAPX1/NKX3.2 [1] was “—”. For the same substance, the COL10A [1] was “—”, the IL-6 [1] was “—” and the RUNX2 [1] was “—”.
“23 (CEGECAFPLNSYMNATNHAI; listed as Homo sapiens) [compound 23]” was tested, and the ADAMTS5 [1] was “—”, the ALP [1] was “—” and the BAPX1/NKX3.2 [1] was “—”. The COL10A [1] was “—”, the IL-6 [1] was “—” and the RUNX2 [1] was “—”.
With “24 (AIVQTLVHFINPETVPKPCC; listed as Homo sapiens) [compound 24]” the ADAMTS5 [1] was “—”, the ALP [1] was “—” and the BAPX1/NKX3.2 [1] was “—”. The COL10A [1] was “—”, the IL-6 [1] was “—” and the RUNX2 [1] was “—”.
In the case of “25 (CCAPTQLNAISVLYFDDSSN; listed as Homo sapiens) [compound 25]”, the ADAMTS5 [1] was “—”, the ALP [1] was “—” and the BAPX1/NKX3.2 [1] was “—”. The COL10A [1] was “—”, the IL-6 [1] was “—” and the RUNX2 [1] was “—”.
With “26 (SSNVILKKYRNMVVRACGCH; listed as Homo sapiens) [compound 26]” the ADAMTS5 [1] was “—”, the ALP [1] was “—” and the BAPX1/NKX3.2 [1] was “—”. For the same substance, the COL10A [1] was “—”, the IL-6 [1] was “—” and the RUNX2 [1] was “—”.
With “AISVLYFDDSSNVILKKYRN (listed as Homo sapiens) [SEQ ID NO: 12]” the “suppression of the OA chondrocyte phenotype” value (“suppression” for short) [1] was “efficiently suppressed the OA chondrocyte phenotype”.
For “APTQLNAISVLYFDDSSNVI (listed as Homo sapiens) [SEQ ID NO: 9]”, the “suppression” value [1] was “efficiently suppressed the OA chondrocyte phenotype”.
“ETVPKPSSAPTQLNAISVLY (listed as Homo sapiens) [SEQ ID NO: 4]” was tested, and the “activity in the assays as employed herein (table 2)” value (“activity in the assays” below) [1] was “lost its activity”.
With “FDDSSNVILKKYRNMVVRAS (listed as Homo sapiens) [SEQ ID NO: 15]” the “suppression” value [1] was “efficiently suppressed the OA chondrocyte phenotype”.
In the case of “FINPETVPKPSSAPTQLNAI (listed as Homo sapiens) [SEQ ID NO: 2]”, the “activity in the assays” value [1] was “lost its activity”.
For “KPSSAPTQLNAISVLYFDDS (listed as Homo sapiens) [SEQ ID NO: 7]”, the “suppression” value [1] was “efficiently suppressed the OA chondrocyte phenotype”.
“LNAISVLYFDDSSNVILKKY (listed as Homo sapiens) [SEQ ID NO: 11]” was tested, and the “suppression” value [1] was “efficiently suppressed the OA chondrocyte phenotype”.
With “LYFDDSSNVILKKYRNMVVR (listed as Homo sapiens) [SEQ ID NO: 14]” the “suppression” value [1] was “efficiently suppressed the OA chondrocyte phenotype”.
With “NPETVPKPSSAPTQLNAISV (listed as Homo sapiens) [SEQ ID NO: 3]” the “activity in the assays” value [1] was “lost its activity”.
For “PKPSSAPTQLNAISVLYFDD (listed as Homo sapiens) [SEQ ID NO: 6]”, the “suppression” value [1] was “efficiently suppressed the OA chondrocyte phenotype”.
With “SSAPTQLNAISVLYFDDSSN (listed as Homo sapiens) [SEQ ID NO: 8]” the “suppression” value [1] was “efficiently suppressed the OA chondrocyte phenotype”.
In the case of “SSNVILKKYRNMVVRASGSH (listed as Homo sapiens) [SEQ ID NO: 17]”, the “suppression” value [1] was “efficiently suppressed the OA chondrocyte phenotype”.
For “SVLYFDDSSNVILKKYRNMV (listed as Homo sapiens) [SEQ ID NO: 13]”, the “suppression” value [1] was “efficiently suppressed the OA chondrocyte phenotype”, the “Safranin-O intensity (glycosaminoglycans)” value (Cartilage explants) was “increased Safranin-O intensity” and the PGE2 levels [2] was “reduce PGE2 levels”. The PGE2 levels [3] was “reduce PGE2 levels”, the PGE2 levels [4] was “reduce PGE2 levels” and the PGE2 levels [5] was “reduce PGE2 levels”.
For “TQLNAISVLYFDDSSNVILK (listed as Homo sapiens) [SEQ ID NO: 10]”, the “suppression” value [1] was “efficiently suppressed the OA chondrocyte phenotype”.
In the case of “VPKPSSAPTQLNAISVLYFD (listed as Homo sapiens) [SEQ ID NO: 5]”, the “activity in the assays” value [1] was “lost its activity”.
For “YSEGESAFPLNS (listed as Homo sapiens) [SEQ ID NO: 43]”, the “COL10A1 (pro-hypertrophic) gene expression” value [6] was “downregulation”, the “COX-2 (pro-hypertrophic) gene expression” value [6] was “downregulation” and the “Col2a1 (pro-chondrogenic) gene expression” value [6] was “upregulation”. For the same substance, the “RUNX2 (pro-hypertrophic) gene expression” value [6] was “downregulation”, the Col10a1 gene expression [7] was “downregulation” and the MMP13 gene expression [7] was “downregulation”.
